Experimental data as given in paper PMC6412895, “Synthesis, Characterization, and Biological Activity of a Novel Series of Benzo[4,5]imidazo[2,1-b]thiazole Derivatives as Potential Epidermal Growth Factor Receptor Inhibitors” (Molecules, 2019).

Tests used:
HeLa cells = assay: MTT anti-proliferative assay, HeLa; type: cell-based, human; conditions: 24 h incubation, EGFR high-expressed cell line
Method: (§1) The inhibitory activities of all target compounds against the cervical cancer cell line HeLa, human liver cancer cell line HepG2, human liver cell line HL7702, and human umbilical vein endothelial cell line HUVEC were determined by the 3-(4,5-dimethylthiazol-2-yl)-2,5-diphenyltetrazolium bromide (MTT) assay. As known, the EGFR level of the HeLa cells was highly expressed, while that of the HepG2 cells was low, and the HL7702 cells and HUVEC cells were human normal cells.
(§2) The human cancer cell lines (HeLa and HepG2) and the human normal ones (HL7702 and HUVEC) were chosen to evaluate the antitumor activity and cell toxicity of target compounds in vitro by the MTT assay. HeLa, HepG2, and HUVEC cells were cultured in a Dulbecco’s modified Eagle’s medium (DMEM) supplemented with 10% fetal bovine serum, and HL7702 cells were cultured in a DMEM supplemented with 10% fetal bovine serum. Cells were grown to 80–90% confluence and subjected to no more than 20 cell passages and were left to acclimatize for 24 h before any treatments. The cells were seeded into 96-well plates (8 * 10^4 cells/mL) and incubated at 37 °C in a humidified atmosphere containing 5% CO2 overnight. After 24 h, the cancer cells were treated with the target compounds at 100, 50, 25, 12.5, 6.25, 3.13, and 1.56 μmol/L; the human normal cells HL7702 were treated with 200 and 100 μmol/L of the target ones; and the HUVEC were treated with 100 and 50 μmol/L of the target compounds. After 24 h of incubation, MTT (5 mg/mL) was subsequently added and incubated for 4 h. Next, the culture medium was cleared, and the crystals were dissolved in DMSO. The optical densities (OD) at 490 nm were measured on a universal microplate reader (Bio-Tek instruments, Inc., EL × 800). Inhibitory effects were expressed as the percentage of IC50 value.

HepG2 cells = assay: MTT anti-proliferative assay, HepG2; type: cell-based, human; conditions: EGFR low-expressed cell line
Method: as §1, §2

HL7702 cells = assay: MTT cell toxicity assay, HL7702 normal liver cells; type: cell-based; conditions: human normal liver cell line
Method: as §1, §2

HUVEC cells = assay: MTT cell toxicity assay, HUVEC; type: cell-based; conditions: 24 h incubation, human normal cells
Method: as §1, §2

EGFR kinase = EGFR kinase (Homo sapiens, UniProt P00533); assay: EGFR kinase assay (Kinase-Glo Plus luminescence); type: biochemical; conditions: 10 µM ATP, 30 °C, 40 minutes
Chain of EGFR kinase (P00533 669-1210 limits assumed): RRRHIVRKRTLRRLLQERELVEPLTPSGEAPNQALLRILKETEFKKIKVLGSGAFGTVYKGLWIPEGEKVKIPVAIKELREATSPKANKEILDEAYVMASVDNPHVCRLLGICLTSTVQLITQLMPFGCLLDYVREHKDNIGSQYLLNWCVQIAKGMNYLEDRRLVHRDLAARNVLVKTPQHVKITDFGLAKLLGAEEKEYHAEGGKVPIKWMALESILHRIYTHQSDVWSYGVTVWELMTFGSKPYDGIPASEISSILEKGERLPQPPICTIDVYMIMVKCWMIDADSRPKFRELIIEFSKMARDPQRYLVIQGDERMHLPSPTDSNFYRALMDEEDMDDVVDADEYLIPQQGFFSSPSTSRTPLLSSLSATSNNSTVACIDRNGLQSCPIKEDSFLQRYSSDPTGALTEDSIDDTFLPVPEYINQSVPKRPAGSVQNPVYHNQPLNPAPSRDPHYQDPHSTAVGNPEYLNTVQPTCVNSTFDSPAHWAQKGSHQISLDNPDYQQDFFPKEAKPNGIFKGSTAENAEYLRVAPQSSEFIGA
Method: The EGFR kinase assays of the target compounds were performed by the intrinsic ATPase activity luminescence assay. All the enzymatic reactions were conducted at 30 °C for 40 minutes. The 50 µL reaction mixture contained 40 mM Tris, pH 7.4, 10 mM MgCl2, 0.1 mg/mL BSA, 1 mM DTT, 10 µM adenosine triphosphate (ATP), 0.2 ug/mL PI3 Kinase, and 100 µM lipid substrate. The compounds were diluted in 10% DMSO and 5 µL of the dilution was added to a 50 µL reaction so that the final concentration of DMSO was 1% in all the reactions. The assay was performed using the Kinase-Glo Plus luminescence kinase assay kit, which measures the kinase activity by quantifying the amount of ATP remaining in solution following a kinase reaction. The luminescent signal from the assay was correlated with the amount of ATP present and was inversely correlated with the amount of kinase activity. The IC50 values were calculated using nonlinear regression with a normalized dose−response fit using the Prism GraphPad software (version 6.0, GraphPad Software, San Diego, CA, USA).

[1] = Homo sapiens, HepG2, 24 h incubation

Row | IC50 (HeLa cells; Homo sapiens, HeLa) [µM] | IC50 (HepG2 cells; [1]) [µM] | melting point [°C] | IC50 (EGFR kinase) [µM] | IC50 (HeLa cells) [µM] | IC50 (HepG2 cells; 24 h incubation) [µM] | Molecule | IC50 (HL7702 cells; L02, 24 h incubation) [µM] | IC50 (HUVEC cells; HUVEC) [µM] | IC50 (HL7702 cells; 24 h incubation) [µM] | IC50 (HUVEC cells) [µM]
1 | > 100 | > 100 | 132 to 134 |  |  |  | O=C(Cc1csc2nc3ccccc3n12)Nc1cccc([N+](=O)[O-])c1 [Compound D06, 2-(Benzo[4,5]imidazo[2,1-b]thiazol-3-yl)-N-(3-nitrophenyl)acetamide] | > 200 | > 100 |  | 
2 | > 100 | > 100 | 99 to 101 |  |  |  | O=C(Cc1csc2nc3ccccc3n12)Nc1ccc([N+](=O)[O-])cc1 [Compound D07, 2-(Benzo[4,5]imidazo[2,1-b]thiazol-3-yl)-N-(4-nitrophenyl)acetamide] | > 200 | > 100 |  | 
3 | > 100 | > 100 | 111 to 113 |  |  |  | O=C(Cc1csc2nc3ccccc3n12)Nc1cccc(O)c1 [Compound D03, 2-(Benzo[4,5]imidazo[2,1-b]thiazol-3-yl)-N-(3-hydroxyphenyl)acetamide] | > 200 | > 100 |  | 
4 | 32.1 | > 100 | 101 to 103 |  |  |  | O=C(Cc1csc2nc3ccccc3n12)Nc1cc(F)cc(F)c1 [Compound D16, 2-(Benzo[4,5]imidazo[2,1-b]thiazol-3-yl)-N-(3,5-difluorophenyl)acetamide] | > 200 | > 100 |  | 
5 | > 100 | > 100 | 123 to 125 |  |  |  | O=C(Cc1csc2nc3ccccc3n12)Nc1ccccc1 [Compound D01, 2-(Benzo[4,5]imidazo[2,1-b]thiazol-3-yl)-N-phenylacetamide] | > 200 | > 100 |  | 
6 | > 100 | > 100 | 101 to 103 |  |  |  | O=C(Cc1csc2nc3ccccc3n12)Nc1ccc(O)cc1 [Compound D02, 2-(Benzo[4,5]imidazo[2,1-b]thiazol-3-yl)-N-(4-hydroxyphenyl)acetamide] | > 200 | > 100 |  | 
7 | > 100 | > 100 | 153 to 155 |  |  |  | O=C(Cc1csc2nc3ccccc3n12)Nc1ccc(Cl)c(C(F)(F)F)c1 [Compound D10, 2-(Benzo[4,5]imidazo[2,1-b]thiazol-3-yl)-N-(4-chloro-3-(trifluoromethyl)phenyl)acetamide] | > 200 | > 100 |  | 
8 | > 100 | > 100 | 206 to 208 |  |  |  | O=C(Cc1csc2nc3ccccc3n12)Nc1ccc(Cl)cc1Cl [Compound D17, 2-(Benzo[4,5]imidazo[2,1-b]thiazol-3-yl)-N-(2,4-dichlorophenyl)acetamide] | > 200 | > 100 |  | 
9 | 2.49 | > 100 | 136 to 138 | 0.0883 |  |  | O=C(Cc1csc2nc3ccccc3n12)Nc1cccc2ccccc12 [Compound D08, 2-(Benzo[4,5]imidazo[2,1-b]thiazol-3-yl)-N-(naphthalen-1-yl)acetamide] | > 200 | > 100 |  | 
10 | > 100 | > 100 | 107 to 109 |  |  |  | O=C(Cc1csc2nc3ccccc3n12)Nc1ccc(Br)cc1 [Compound D14, 2-(Benzo[4,5]imidazo[2,1-b]thiazol-3-yl)-N-(4-bromophenyl)acetamide] | > 200 | > 100 |  | 
11 |  |  |  |  | > 100 | > 100 | 2-(Benzo[4,5]imidazo[2,1-b]thiazol-3-yl)-N-(4-(benzyloxy)phenyl)acetamide [Compound D12] |  |  | > 200 | > 100
12 | > 100 | > 100 | 83 to 85 |  |  |  | Cc1ccccc1NC(=O)Cc1csc2nc3ccccc3n12 [Compound D15, 2-(Benzo[4,5]imidazo[2,1-b]thiazol-3-yl)-N-(2-methylphenyl)acetamide] | > 200 | > 100 |  | 
13 | > 100 | > 100 | 151 to 153 |  |  |  | O=C(Cc1csc2nc3ccccc3n12)Nc1ccc(Br)c(F)c1 [Compound D11, 2-(Benzo[4,5]imidazo[2,1-b]thiazol-3-yl)-N-(4-bromo-3-fluorophenyl)acetamide] | > 200 | > 100 |  | 
14 |  |  |  |  | 43.7 |  | 2-(Benzo[4,5]imidazo[2,1-b]thiazol-3-yl)-N-(4-(trifluoromethyl)phenyl)acetamide [Compound D18] |  |  |  | 
15 | > 100 | > 100 | 218 to 220 |  |  |  | O=C(Cc1csc2nc3ccccc3n12)Nc1ccc(F)c(Br)c1 [Compound D13, 2-(Benzo[4,5]imidazo[2,1-b]thiazol-3-yl)-N-(3-bromo-4-fluorophenyl)acetamide] | > 200 | > 100 |  | 
16 | > 100 | > 100 | 196 to 198 |  |  |  | C=CCOc1ccc(NC(=O)Cc2csc3nc4ccccc4n23)cc1 [Compound D05, N-(4-(Allyloxy)phenyl)-2-(benzo[4,5]imidazo[2,1-b]thiazol-3-yl)acetamide] | > 200 | > 100 |  | 
17 | 14.1 | > 100 | 151 to 153 | 0.1 |  |  | O=C(Cc1csc2nc3ccccc3n12)Nc1ccc(Cl)cc1 [Compound D09, 2-(Benzo[4,5]imidazo[2,1-b]thiazol-3-yl)-N-(4-chlorophenyl)acetamide] | > 200 | > 100 |  | 
18 | 0.42 | > 100 | 121 to 123 | 0.055 |  |  | O=C(Cc1csc2nc3ccccc3n12)Nc1ccccc1O [Compound D04, 2-(Benzo[4,5]imidazo[2,1-b]thiazol-3-yl)-N-(2-hydroxyphenyl)acetamide] | > 200 | > 100 |  | 
